The text below walks through data of US9164090B2, “Methods for detecting molecular interactions” (Korea Advanced Institute of Science and Technology, priority 2007, dated 2015).

One assay has as its system IkBα and IKKb. Nature of the assay: Formation of nano-assembly matrix by IKKb-IkBα interaction on physiological signal in Hela cells. In kind it is cell-based. The following applies: TNFa treatment; FRB-ECFP-FT, IKKb-mRFP-FKBP and IkBα-YFP-FKBP. An excerpt: In another example, IKKb-IkBα proteins were used as prey-bait, and TNFa was used as a material for mediating (regulating) the interaction between them. The IkBα and IKKb proteins interact with each other, only when a physiological external signal of TNFa is transferred to cells. The interaction between phosphorylase (such as IKKb) and IkBα that is the substrate thereof is known as one of the weakest interactions in cells. The recombinant genes FRB-ECFP-FT, IKKb-mRFP-FKBP and IkBα-YFP-FKBP were introduced together into Hela cells, and each of the fusion proteins was expressed in the cells.

Another assay deals with T1, FKBP protein (Homo sapiens, UniProt P62942).
T1 construct: fluorescent protein (mRFP); ferritin (FT); expressed in transfected cells; host or cells: HeLa
Nature of the assay: Formation of nano-assembly matrices of FKBP (wild type)-ferritin by AP1510 in Hela cells. In kind it is cell-based. As to conditions: 1 μM AP1510. An excerpt:
In this experiment, a FKBP (wild type) protein was used as a material for inducing the formation of nano-assembly matrices, while an AP1510 compound was used as a material for mediating the binding between FKBP proteins. The AP1510 compound is a FK506-like compound and is a mediator (regulator) material, which has two moieties capable of binding to the FKBP protein, linked with each other by a linker, such that it can interact simultaneously with two molecules of the FKBP protein.
Two FKBP (wild type) proteins were continuously fused to ferritin and expressed in Hela cells. The cells were treated with 1 μM of the AP1510 compound, which is an FKBP interaction mediator (regulator) material, and the formation of nano-assembly matrices within 1 hour was observed through In-Cell Analyzer 1000 (GE) (FIG. 35). After the formation of the nano-assembly matrices was induced for 3 hours, the cells were treated with 250 nM of Rapamycin for 1 hour.
For the case where mRFP was attached to the FKBP protein in Example 7, various fluorescent proteins, such as ECFP, TagCFP and mTFP1, were attached to the FKBP protein to examine the effect of the AP1510 compound on the induction of formation of nano-assembly matrices.
FKBP was fused to the ferritin protein, and the three different fluorescent proteins were attached between FKBP and ferritin, and then expressed in Hela cells. […]

T1 sequence (P62942 whole entry): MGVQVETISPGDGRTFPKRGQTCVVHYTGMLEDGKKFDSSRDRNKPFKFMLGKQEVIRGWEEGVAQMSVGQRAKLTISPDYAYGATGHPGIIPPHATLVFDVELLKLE

As to TNFa, the “formation of nano-assembly matrix” value with IkBα and IKKb was “a large nano-assembly matrix was formed in cells”.
For `CCC(C)(C)C(=O)C(=O)N1CCCC[C@H]1C(=O)O[C@H](CCc1ccc(OC)c(OC)c1)c1cccc(OCC(=O)NCCNC(=O)COc2cccc([C@@H](CCc3ccc(OC)c(OC)c3)OC(=O)[C@@H]3CCCCN3C(=O)C(=O)C(C)(C)CC)c2)c1` [AP1510], the “induction of formation of nano-assembly matrices depending on fluorescent protein” value at FKBP protein (ECFP, TagCFP or mTFP1 between FKBP and ferritin) was “induced more effectively in the case of TagCFP-mTFP1 and mTFP1 than the case of ECFP”. Further, the “time to formation of nano-assembly matrices” value at FKBP protein (two FKBP (wild type) fused to ferritin) is at most 1 h.
